# In ChEMBL document CHEMBL3885881, “DrugMatrix”:
# Organism: Rattus norvegicus
# Assay: DrugMatrix - Regimen: Daily Repeat
# Type: toxicity, organism-based, Sprague-Dawley
# Set-up: regimen Daily Repeat, gender Male, age 6-8 weeks
# Conditions: in vivo, po, route oral GAVAGE, vehicle 100 % WATER; for ABSOLUTE BASOPHIL / ABSOLUTE EOSINOPHIL / ABSOLUTE LYMPHOCYTE / ABSOLUTE MONOCYTE / ABSOLUTE SEGMENTED NEUTROPHIL / BASOPHIL / EOSINOPHIL / ERYTHROCYTE COUNT / HEMATOCRIT / HEMOGLOBIN / LEUKOCYTE COUNT / LYMPHOCYTE / MEAN CORPUSCULAR HEMOGLOBIN / MEAN CORPUSCULAR HEMOGLOBIN CONCENTRATION / MEAN CORPUSCULAR VOLUME / MONOCYTE / NEUTROPHIL / NUCLEATED RED BLOOD CELLS / PLATELET COUNT: tissue Blood; for ALANINE AMINOTRANSFERASE / ALBUMIN / ALKALINE PHOSPHATASE / ASPARTATE AMINOTRANSFERASE / BLOOD UREA NITROGEN / CARBON DIOXIDE / CHLORIDE / CHOLESTEROL / CREATINE PHOSPHOKINASE / CREATININE / GLUCOSE / LACTATE DEHYDROGENASE / LIPASE / PHOSPHORUS / POTASSIUM / SODIUM / TOTAL BILIRUBIN / TOTAL PROTEIN / URIC ACID: tissue Plasma
# [1] = 0 mg/kg, 72 h, dose level Control, time 3 day
# [2] = 0 mg/kg, 120 h, dose level Control, time 5 day
# [3] = 100 mg/kg, 72 h, dose level Low, time 3 day
structure (smiles),measurement,setting,value
CC(C)(S)[C@@H](N)C(=O)O [PENICILLAMINE],ABSOLUTE BASOPHIL,[1],0 CELLS/uL
same,ABSOLUTE EOSINOPHIL,[1],0 CELLS/uL
same,ABSOLUTE LYMPHOCYTE,[1],7802.17 CELLS/uL
same,ABSOLUTE MONOCYTE,[1],13.5 CELLS/uL
same,ABSOLUTE SEGMENTED NEUTROPHIL,[1],617.67 CELLS/uL
same,BASOPHIL,[1],0%
same,EOSINOPHIL,[1],0%
same,ERYTHROCYTE COUNT,[1],5.35 x10E6/uL
same,HEMATOCRIT,[1],33.02%
same,HEMOGLOBIN,[1],12.88 G/DL
same,LEUKOCYTE COUNT,[1],8.43 x10E3/uL
same,LYMPHOCYTE,[1],92.67%
same,MEAN CORPUSCULAR HEMOGLOBIN,[1],24.12 pg
same,MEAN CORPUSCULAR HEMOGLOBIN CONCENTRATION,[1],39.03 G/DL
same,MEAN CORPUSCULAR VOLUME,[1],61.8 fL
same,MONOCYTE,[1],0.17%
same,NEUTROPHIL,[1],7.17%
same,NUCLEATED RED BLOOD CELLS,[1],0 /100WBC
same,PLATELET COUNT,[1],1124.83 x10E3/uL
same,ALANINE AMINOTRANSFERASE,[1],54.17 u/L
same,ALBUMIN,[1],4.07 G/DL
same,ALKALINE PHOSPHATASE,[1],383.83 u/L
same,ASPARTATE AMINOTRANSFERASE,[1],82.17 u/L
same,BLOOD UREA NITROGEN,[1],13.67 mg/dL
same,CARBON DIOXIDE,[1],31 mmol/L
same,CHLORIDE,[1],100.83 MEQ/L
same,CHOLESTEROL,[1],65.17 mg/dL
same,CREATINE PHOSPHOKINASE,[1],228.33 u/L
same,CREATININE,[1],0.12 mg/dL
same,GLUCOSE,[1],148 mg/dL
same,LACTATE DEHYDROGENASE,[1],97.83 u/L
same,LIPASE,[1],9.17 u/L
same,PHOSPHORUS,[1],9.75 mg/dL
same,POTASSIUM,[1],5.85 MEQ/L
same,SODIUM,[1],147.02 MEQ/L
same,TOTAL BILIRUBIN,[1],0.18 mg/dL
same,TOTAL PROTEIN,[1],6.1 G/DL
same,URIC ACID,[1],0.5 mg/dL
same,ABSOLUTE BASOPHIL,[2],0 CELLS/uL
same,ABSOLUTE EOSINOPHIL,[2],0 CELLS/uL
same,ABSOLUTE LYMPHOCYTE,[2],10538 CELLS/uL
same,ABSOLUTE MONOCYTE,[2],15.83 CELLS/uL
same,ABSOLUTE SEGMENTED NEUTROPHIL,[2],762.83 CELLS/uL
same,BASOPHIL,[2],0%
same,EOSINOPHIL,[2],0%
same,ERYTHROCYTE COUNT,[2],5.49 x10E6/uL
same,HEMATOCRIT,[2],34.63%
same,HEMOGLOBIN,[2],13.72 G/DL
same,LEUKOCYTE COUNT,[2],11.32 x10E3/uL
same,LYMPHOCYTE,[2],92.67%
same,MEAN CORPUSCULAR HEMOGLOBIN,[2],24.97 pg
same,MEAN CORPUSCULAR HEMOGLOBIN CONCENTRATION,[2],39.57 G/DL
same,MEAN CORPUSCULAR VOLUME,[2],63.05 fL
same,MONOCYTE,[2],0.17%
same,NEUTROPHIL,[2],7.17%
same,NUCLEATED RED BLOOD CELLS,[2],0.17 /100WBC
same,PLATELET COUNT,[2],802 x10E3/uL
same,ALANINE AMINOTRANSFERASE,[2],50.5 u/L
same,ALBUMIN,[2],4.07 G/DL
same,ALKALINE PHOSPHATASE,[2],336.83 u/L
same,ASPARTATE AMINOTRANSFERASE,[2],81 u/L
same,BLOOD UREA NITROGEN,[2],14.17 mg/dL
same,CARBON DIOXIDE,[2],32 mmol/L
same,CHLORIDE,[2],98.33 MEQ/L
same,CHOLESTEROL,[2],69.17 mg/dL
same,CREATINE PHOSPHOKINASE,[2],253.33 u/L
same,CREATININE,[2],0.13 mg/dL
same,GLUCOSE,[2],153.67 mg/dL
same,LACTATE DEHYDROGENASE,[2],157 u/L
same,LIPASE,[2],9 u/L
same,PHOSPHORUS,[2],10.78 mg/dL
same,POTASSIUM,[2],6.11 MEQ/L
same,SODIUM,[2],144.57 MEQ/L
same,TOTAL BILIRUBIN,[2],0.15 mg/dL
same,TOTAL PROTEIN,[2],6.05 G/DL
same,URIC ACID,[2],0.73 mg/dL
same,ABSOLUTE BASOPHIL,[3],0 CELLS/uL
same,ABSOLUTE EOSINOPHIL,[3],0 CELLS/uL
same,ABSOLUTE LYMPHOCYTE,[3],8040.67 CELLS/uL
same,ABSOLUTE MONOCYTE,[3],62.33 CELLS/uL
same,ABSOLUTE SEGMENTED NEUTROPHIL,[3],563.67 CELLS/uL
same,BASOPHIL,[3],0%
same,EOSINOPHIL,[3],0%
same,ERYTHROCYTE COUNT,[3],5.32 x10E6/uL
same,HEMATOCRIT,[3],34.33%
same,HEMOGLOBIN,[3],13 G/DL
same,LEUKOCYTE COUNT,[3],8.67 x10E3/uL
same,LYMPHOCYTE,[3],92.67%
same,MEAN CORPUSCULAR HEMOGLOBIN,[3],24.53 pg
same,MEAN CORPUSCULAR HEMOGLOBIN CONCENTRATION,[3],37.9 G/DL
same,MEAN CORPUSCULAR VOLUME,[3],64.67 fL
same,MONOCYTE,[3],0.67%
same,NEUTROPHIL,[3],6.67%
same,NUCLEATED RED BLOOD CELLS,[3],0 /100WBC
same,PLATELET COUNT,[3],991.33 x10E3/uL
same,ALANINE AMINOTRANSFERASE,[3],51 u/L
same,ALBUMIN,[3],4.03 G/DL
same,ALKALINE PHOSPHATASE,[3],403.33 u/L
same,ASPARTATE AMINOTRANSFERASE,[3],82.33 u/L
same,BLOOD UREA NITROGEN,[3],13.67 mg/dL
same,CARBON DIOXIDE,[3],32.33 mmol/L
same,CHLORIDE,[3],100.33 MEQ/L
same,CHOLESTEROL,[3],73.33 mg/dL
same,CREATINE PHOSPHOKINASE,[3],332 u/L
same,CREATININE,[3],0.11 mg/dL
same,GLUCOSE,[3],145.67 mg/dL
same,LACTATE DEHYDROGENASE,[3],165 u/L
same,LIPASE,[3],9 u/L
same,PHOSPHORUS,[3],10 mg/dL
same,POTASSIUM,[3],5.88 MEQ/L
same,SODIUM,[3],145.23 MEQ/L
same,TOTAL BILIRUBIN,[3],0.13 mg/dL
same,TOTAL PROTEIN,[3],5.93 G/DL
same,URIC ACID,[3],0.73 mg/dL
